Reference: patent publication US8372967B2, “Compounds and methods for modulating expression of GCCR” (Isis Pharmaceuticals, Inc., priority 2006, dated 2013)
Strand notation (5' to 3'): a small letter for the sugar, then the base; units joined by * are phosphorothioate-linked, units joined directly phosphodiester-linked; [ ] holds rarer units or linkages, { } end groups; capitals alone tell only the bases. e = 2'-O-(2-methoxyethyl) (MOE); [5mC] = 5-methylcytosine; d = 2'-deoxy (DNA)

Legend:
[1] = tested on: PCSK9 mRNA; assay type: cell-based, human; settings: Hep3B cells, 100 nM, relative to untreated control cells; for % Inhib: 0 = no reduction observed
Procedure: When cells reached appropriate confluency, they were treated with oligonucleotide using LIPOFECTIN® as described. […] Cells were treated and data were obtained in duplicate or triplicate. […] Cells were harvested 16-24 hours after oligonucleotide treatment.
Prior to quantitative PCR analysis, primer-probe sets specific to the target gene being measured were evaluated for their ability to be “multiplexed” with a GAPDH amplification reaction. After isolation the RNA is subjected to sequential reverse transcriptase (RT) reaction and real-time PCR, both of which are performed in the same well. RT and PCR reagents were obtained from Invitrogen Life Technologies (Carlsbad, Calif.). […] The RT reaction was carried out by incubation for 30 minutes at 48° C. Following a 10 minute incubation at 95° C. to activate the PLATIN 9M® Taq, 40 cycles of a two-step PCR protocol were carried out: 95° C. for 15 seconds (denaturation) followed by 60° C. for 1.5 minutes (annealing/extension).
170 μL of RiboGreen® working reagent (RiboGreen® reagent diluted 1:350 in 10 mM Tris-HCl, 1 mM EDTA, pH 7.5) was pipetted into a 96-well plate containing 30 μL purified cellular RNA. The plate was read in a CytoFluor® 4000 (PE Applied Biosystems) with excitation at 485 nm and emission at 530 nm.
Short antisense compounds targeted to a PCSK9 nucleic acid were tested for their effects on PCSK9 mRNA in vitro. The Isis No, gapmer motif and SEQ ID NO of each short antisense compound are shown again in Table 75. Cultured Hep3B cells were treated with 100 nM of short antisense compound. 5-10-5 MOE gapmers targeted to a PCSK9 nucleic acid were used as positive controls. After the treatment period, RNA was isolated from the cells and PCSK9 mRNA levels were measured by quantitative real-time PCR, as described herein. PCSK9 mRNA levels were adjusted according to total RNA content as measured by RIBOGREEN®. Results are presented in Table 75 as percent inhibition of PCSK9 (% Inhib), relative to untreated control cells.

[2] = tested on: rat DGAT2 mRNA; test: Dose-dependent inhibition of DGAT2 in A10 cells (Tables 82, 83); assay type: cell-based
Procedure: Additional short antisense compounds targeted to DGAT2 mRNA were tested in vitro in a dose-response experiment. A10 cells were prepared as described above and treated with 6.25, 12.5, 25.0, 50.0, 100.0, and 200.0 nM short antisense compounds to determine if DGAT2 inhibition occurs in a dose-dependent manner. […] Results are presented as percent inhibition, relative to untreated control cells.
Additional short antisense compounds targeted to DGAT2 mRNA were tested in vitro. A10 cells were prepared as described above and treated with 0.62, 1.85, 5.56, 16.67, 50.0, and 150.0 nM short antisense compounds to determine if DGAT2 inhibition occurs in a dose-dependent manner. DGAT2 mRNA was measured using quantitative real-time PCR, as described herein. […] Results are presented as percent inhibition of rat DGAT2, relative to untreated control cells.

## 400304 (antisense eG*eA*dG*dA*dT*dA*d[5mC]*dA*d[5mC]*d[5mC]*dT*d[5mC]*e[5mC]*eA) [compound 400304]
[1]
  % Inhibition Range: 10-20%
  % Inhib: 11%

## 372568 (antisense eG*eA*d[5mC]*dA*d[5mC]*dT*dG*d[5mC]*dA*dG*dG*d[5mC]*e[5mC]*eA) [compound 372568]
[2]; 6.25 nM (Table 82)
  percent inhibition of DGAT2: 0%
[2]; 12.5 nM (Table 82)
  percent inhibition of DGAT2: 0%
[2]; 50.0 nM (Table 82)
  percent inhibition of DGAT2: 26%
[2]; 100.0 nM (Table 82)
  percent inhibition of DGAT2: 72%
[2]; 200.0 nM (Table 82)
  percent inhibition of DGAT2: 69%

## 400351 (antisense eA*e[5mC]*d[5mC]*d[5mC]*dT*d[5mC]*dA*d[5mC]*d[5mC]*d[5mC]*d[5mC]*d[5mC]*eA*eA) [compound 400351]
[1]
  % Inhibition Range: 10-20%
  % Inhib: 14%

## 400302 (antisense eG*eA*dT*dA*d[5mC]*dA*d[5mC]*d[5mC]*dT*d[5mC]*d[5mC]*dA*e[5mC]*e[5mC]) [compound 400302]
[1]
  % Inhib: 0%

## 372562 (antisense eG*eT*d[5mC]*dT*dT*dG*dG*dA*dG*dG*dG*d[5mC]*e[5mC]*eG) [compound 372562]
[2]; 6.25 nM (Table 82)
  percent inhibition of DGAT2: 0%
[2]; 12.5 nM (Table 82)
  percent inhibition of DGAT2: 0%
[2]; 50.0 nM (Table 82)
  percent inhibition of DGAT2: 36%
[2]; 100.0 nM (Table 82)
  percent inhibition of DGAT2: 48%
[2]; 200.0 nM (Table 82)
  percent inhibition of DGAT2: 75%

## 400323 (antisense eG*e[5mC]*d[5mC]*dA*dG*dG*dG*dG*d[5mC]*dA*dG*d[5mC]*eA*eG) [compound 400323]
[1]
  % Inhib: 0%

## 400345 (antisense eT*eG*dG*dG*dT*dG*d[5mC]*dT*dG*dG*dG*dG*eG*eG) [compound 400345]
[1]
  % Inhib: 0%

## 400336 (antisense eT*e[5mC]*d[5mC]*dT*d[5mC]*dA*dG*dG*dG*dA*dA*d[5mC]*e[5mC]*eA) [compound 400336]
[1]
  % Inhib: 4%

## 400315 (antisense eA*eT*dG*dA*dG*dG*dG*dT*dG*d[5mC]*d[5mC]*dG*e[5mC]*eT) [compound 400315]
[1]
  % Inhib: 0%

## 400355 (antisense eA*eG*dA*d[5mC]*dA*d[5mC]*d[5mC]*d[5mC]*dT*d[5mC]*dA*d[5mC]*e[5mC]*e[5mC]) [compound 400355]
[1]
  % Inhib: 0%

## 400332 (antisense e[5mC]*eA*dG*dG*dG*dA*dA*d[5mC]*d[5mC]*dA*dG*dG*e[5mC]*e[5mC]) [compound 400332]
[1]
  % Inhib: 0%

## 400320 (antisense e[5mC]*e[5mC]*dG*dA*dA*dT*dA*dA*dA*d[5mC]*dT*d[5mC]*e[5mC]*eA) [compound 400320]
[1]
  % Inhib: 0%

## 400316 (antisense eT*eA*dT*dG*dA*dG*dG*dG*dT*dG*d[5mC]*d[5mC]*eG*e[5mC]) [compound 400316]
[1]
  % Inhib: 8%

## 400338 (antisense eG*eG*dT*d[5mC]*d[5mC]*dT*d[5mC]*dA*dG*dG*dG*dA*eA*e[5mC]) [compound 400338]
[1]
  % Inhib: 9%

## 400324 (antisense eG*eA*dG*dT*dA*dG*dA*dG*dG*d[5mC]*dA*dG*eG*e[5mC]) [compound 400324]
[1]
  % Inhib: 7%

## 400300 (antisense eG*eG*dG*dA*dT*dG*d[5mC]*dT*d[5mC]*dT*dG*dG*eG*e[5mC]) [compound 400300]
[1]
  % Inhib: 9%

## 400311 (antisense eA*eT*d[5mC]*d[5mC]*d[5mC]*dG*dG*d[5mC]*d[5mC]*dG*d[5mC]*dT*eG*eA) [compound 400311]
[1]
  % Inhibition Range: 10-20%
  % Inhib: 18%

## 400369 (antisense e[5mC]*e[5mC]*dG*dG*d[5mC]*dT*d[5mC]*d[5mC]*dG*dG*d[5mC]*dA*eG*e[5mC]) [compound 400369]
[1]
  % Inhib: 0%

## 400301 (antisense e[5mC]*eG*d[5mC]*dT*d[5mC]*d[5mC]*dA*dG*dG*dT*dT*d[5mC]*e[5mC]*eA) [compound 400301]
[1]
  % Inhibition Range: 20-30%
  % Inhib: 27%

## 400354 (antisense eG*eA*d[5mC]*dA*d[5mC]*d[5mC]*d[5mC]*dT*d[5mC]*dA*d[5mC]*d[5mC]*e[5mC]*e[5mC]) [compound 400354]
[1]
  % Inhibition Range: 10-20%
  % Inhib: 19%

## 400297 (antisense eA*eT*dG*dG*dG*dG*d[5mC]*dA*dA*d[5mC]*dT*dT*e[5mC]*eA) [compound 400297]
[1]
  % Inhib: 0%

## 400366 (antisense eG*e[5mC]*dT*d[5mC]*d[5mC]*dG*dG*d[5mC]*dA*dG*d[5mC]*dA*eG*eA) [compound 400366]
[1]
  % Inhibition Range: 10-20%
  % Inhib: 15%

## 400310 (antisense eT*e[5mC]*d[5mC]*d[5mC]*dG*dG*d[5mC]*d[5mC]*dG*d[5mC]*dT*dG*eA*e[5mC]) [compound 400310]
[1]
  % Inhib: 8%

## 400359 (antisense e[5mC]*eA*dT*dG*dG*d[5mC]*dA*dG*d[5mC]*dA*dG*dG*eA*eA) [compound 400359]
[1]
  % Inhib: 0%

## 400337 (antisense eG*eT*d[5mC]*d[5mC]*dT*d[5mC]*dA*dG*dG*dG*dA*dA*e[5mC]*e[5mC]) [compound 400337]
[1]
  % Inhib: 0%

## 400312 (antisense e[5mC]*eA*dT*d[5mC]*d[5mC]*d[5mC]*dG*dG*d[5mC]*d[5mC]*dG*d[5mC]*eT*eG) [compound 400312]
[1]
  % Inhibition Range: 20-30%
  % Inhib: 28%

## 400367 (antisense eG*eG*d[5mC]*dT*d[5mC]*d[5mC]*dG*dG*d[5mC]*dA*dG*d[5mC]*eA*eG) [compound 400367]
[1]
  % Inhibition Range: 10-20%
  % Inhib: 12%

## 400344 (antisense eG*eG*dG*dT*dG*d[5mC]*dT*dG*dG*dG*dG*dG*eG*e[5mC]) [compound 400344]
[1]
  % Inhib: 0%

## 400347 (antisense eG*eG*dA*dG*d[5mC]*dA*dG*d[5mC]*dT*d[5mC]*dA*dG*e[5mC]*eA) [compound 400347]
[1]
  % Inhib: 0%

## 400361 (antisense eG*eG*d[5mC]*dA*dG*d[5mC]*dA*dG*dA*dT*dG*dG*e[5mC]*eA) [compound 400361]
[1]
  % Inhib: 2%

## 400364 (antisense eT*e[5mC]*d[5mC]*dG*dG*d[5mC]*dA*dG*d[5mC]*dA*dG*dA*eT*eG) [compound 400364]
[1]
  % Inhib: 0%

## 400299 (antisense eA*e[5mC]*dA*dT*dG*dG*dG*dG*d[5mC]*dA*dA*d[5mC]*eT*eT) [compound 400299]
[1]
  % Inhib: 0%

## 400326 (antisense eT*e[5mC]*d[5mC]*d[5mC]*d[5mC]*dA*dA*dA*dG*dT*d[5mC]*d[5mC]*e[5mC]*e[5mC]) [compound 400326]
[1]
  % Inhib: 0%

## 400319 (antisense e[5mC]*eG*dA*dA*dT*dA*dA*dA*d[5mC]*dT*d[5mC]*d[5mC]*eA*eG) [compound 400319]
[1]
  % Inhib: 0%

## 400329 (antisense e[5mC]*eA*d[5mC]*dG*dT*dG*dG*dG*d[5mC]*dA*dG*d[5mC]*eA*eG) [compound 400329]
[1]
  % Inhibition Range: 10-20%
  % Inhib: 14%

## 400340 (antisense e[5mC]*eT*dG*dG*dT*d[5mC]*d[5mC]*dT*d[5mC]*dA*dG*dG*eG*eA) [compound 400340]
[1]
  % Inhib: 0%

## 400360 (antisense eG*e[5mC]*dA*dT*dG*dG*d[5mC]*dA*dG*d[5mC]*dA*dG*eG*eA) [compound 400360]
[1]
  % Inhibition Range: 30-40%
  % Inhib: 38%

## 400362 (antisense e[5mC]*eG*dG*d[5mC]*dA*dG*d[5mC]*dA*dG*dA*dT*dG*eG*e[5mC]) [compound 400362]
[1]
  % Inhibition Range: 10-20%
  % Inhib: 16%

## 400349 (antisense e[5mC]*eT*dG*dG*dA*dG*d[5mC]*dA*dG*d[5mC]*dT*d[5mC]*eA*eG) [compound 400349]
[1]
  % Inhibition Range: 10-20%
  % Inhib: 13%

## 400368 (antisense e[5mC]*eG*dG*d[5mC]*dT*d[5mC]*d[5mC]*dG*dG*d[5mC]*dA*dG*e[5mC]*eA) [compound 400368]
[1]
  % Inhibition Range: 10-20%
  % Inhib: 11%

## 400339 (antisense eT*eG*dG*dT*d[5mC]*d[5mC]*dT*d[5mC]*dA*dG*dG*dG*eA*eA) [compound 400339]
[1]
  % Inhib: 0%

## 400343 (antisense eG*eG*dT*dG*d[5mC]*dT*dG*dG*dG*dG*dG*dG*e[5mC]*eA) [compound 400343]
[1]
  % Inhib: 0%
